Data set [1] concerns Human peripheral mononuclear cells (PMNC). Nature of the data set: Toxicity in normal cells, resazurin assay. The class given is cell-based. To be noted: PMNC of a healthy donor, all concentrations tested 0.001-100 μM. The protocol: We also investigated Aloe-emodin’s toxicity towards normal cells. Human peripheral mononuclear cells (PMNC) were isolated from fresh blood samples of a healthy donor and tested against various concentrations of Aloe-emodin ranging from 0.001-100 μM.
Normal human peripheral mononuclear cells (PMNC) were isolated from fresh blood samples of a healthy donor using Histopaque® (Sigma-Aldrich). In brief, 6 mL blood were layered with 6 mL Histopaque® and centrifuged (400 × g) for 30 min at 4°C. The opaque interface containing lymphocytes and other mononuclear cells was transferred into a new tube and washed several times. Isolated PMNCs were kept in Panserin 413 medium (PAN-Biotech, Aidenbach, Germany) supplemented with 2 % phytohemagglutinin M (PHA-M, Life Technologies, Darmstadt, Germany).
Resazurin reduction assay was conducted to test the cytotoxicity of the compounds. This assay is based on the reduction of resazurin to resorufin by viable cells. […] After 72 h incubation and addition of resazurin (Sigma-Aldrich) for 4 h, staining was measured by an Infinite M2000 ProTM plate reader (Tecan, Germany) using an excitation wavelength of 544 nm and an emission wavelength of 590 nm. […]
(In general: Resazurin is reduced to fluorescent resorufin, in cell work by metabolically active cells.)

The test system of another data set is U87.MGΔEGFR cells. Briefly: Resazurin reduction assay, U87.MGΔEGFR. The format is cell-based. The settings on record: Homo sapiens, 72 h. An excerpt: (§1) The cell lines used in the present work, their origins and maintenance conditions were previously reported. In brief, drug-sensitive CCRF-CEM and multidrug resistant P-glycoprotein-over-expressing CEM/ADR5000 leukemia cells, MDA-MB-231-pcDNA3 breast cancer cells and their transfectant subline MDA-MB-231-BCRP clone 23, HCT116 (p53^+/+) colon cancer cells and its knockout clone HCT116 (p53^-/-), U87.MG glioblastoma multiform cells and their transfectant subline U87.MGΔEGFR as well as HEK293 human embryonic kidney cells transfected with or without a cDNA for ABCB5 were used. The human peripheral mononuclear cells (PMNC) were isolated from fresh blood samples of a healthy donor by using Histopaque® (Sigma-Aldrich, Taufkirchen, Germany).
(§2) Resazurin reduction assay was conducted to test the cytotoxicity of the compounds. This assay is based on the reduction of resazurin to resorufin by viable cells. […] Briefly, aliquots of 0.5×10^4 adherent cells which were allowed to attach overnight and 1×10^4 suspension cells per well were seeded in 96-well-plates with or without the addition of varying concentrations of the test substance to get a total volume of 200 μL/well. After 72 h incubation and addition of resazurin (Sigma-Aldrich) for 4 h, staining was measured by an Infinite M2000 ProTM plate reader (Tecan, Germany) using an excitation wavelength of 544 nm and an emission wavelength of 590 nm. […]

Data set [2] concerns CCRF-CEM cells. Briefly: Alkaline comet assay (DNA damage). The format is cell-based, human. The settings on record: 1-, 2- or 4-fold IC50, 24 h. The protocol:
The OxiSelect™ Comet Assay Kit (Cell Biolabs/Biocat, Heidelberg, Germany) was used to detect DNA damage according to the manufacturer’s instructions. CCRF-CEM cells treated with 1-, 2- and 4-fold IC50 of Aloe-emodin for 24 h. Then, the cells were mixed with agarose and applied to OxiSelect™ Comet Assay slides. These slides including the embedded cells were treated with lysis buffer and alkaline solution. Subsequently, electrophoresis was performed on the slide with a voltage of 22 V for 30 min corresponding to 1 V/cm of the electrophoresis chamber. These slides were washed with distilled water. After fixation with 70% ethanol, the slides were stained with by a fluorescent DNA binding dye.
Then, the slides were photographed by a fluorescence microscope (EVOSs FL Cell Image System, Thermo Fisher Scientific Waltham, USA) using a FITC filter with an excitation wavelength of 490 nm and emission at 520 nm. At least 50 cells per image were randomly selected and analyzed with the OpenComet software (http://www.cometbio.org). Percentages of tail DNA, tail moment and olive moment were assessed as parameters for DNA damage. The statistical significance was determined by one-way ANOVA with Tukey’s multiple comparison test.

Data set [3] concerns HCT116 (p53+/+) colon cancer cells. Briefly: Resazurin reduction assay, HCT116 (p53+/+). The class given is cell-based. To be noted: Homo sapiens, HCT-116, 72 h.
Excerpt: as §1, §2

The test system of data set [4] is HEK293 human embryonic kidney cells. Briefly: Resazurin reduction assay, HEK293. The class given is cell-based. To be noted: 72 h.
Excerpt: as §1, §2

For data set [5], the system named is drug-sensitive wild-type cell lines. Briefly: Resazurin reduction assay, range over drug-sensitive wild-type cell lines. The class given is cell-based. To be noted: Homo sapiens.
Excerpt: as §1, §2

For data set [6], the system named is CCRF-CEM cells. Briefly: Cell cycle analysis (PI, flow cytometry). The class given is cell-based, human. The settings on record: 4-fold IC50, 24 h. The protocol:
The cells were collected, washed in PBS and fixed with ice-cold 96% ethanol. After washing the cells with PBS again, the cells were dissolved in PBS and stained with propidium iodide (PI, Sigma-Aldrich) at a final concentration of 50 μg/mL for 15 min in the dark. Cell cycle analyses were performed using a BD Accuri™ C6 Flow cytometer (Becton-Dickinson, Heidelberg, Germany) at 488 nm excitation wavelength, and emission was measured by a 610/20 nm band pass filter. All experiments were performed at least in triplicates. The protocol has been recently reported by us.
In general terms: In flow cytometry, cells or beads pass a laser one at a time.

The term IC50 denotes the concentration needed to halve the response being measured. Read a high IC50 as a need for much substance. As to `O=C1c2cccc(O)c2C(=O)c2c(O)cc(CO)cc21` [Aloe-emodin], the “cytotoxic activity towards normal cells” value in data set [1] is given as “did not show cytotoxic activity”. Moreover, the half-maximal inhibitory concentration (IC50) is 33.8 µM in the data set on U87.MGΔEGFR cells; 16.5 µM in data set [3]; 16.9 µM in data set [4]; 16.5 to 22.3 µM in data set [5] (drug-sensitive wild-type cell lines HCT116(p53+/+), U87.MG, MDA-MB-231-pcDNA, HEK293); 9.87 to 22.3 µM in data set [5] (drug-sensitive wild-type cell lines incl. CCRF-CEM (abstract)). Moreover, the “DNA damage (comet tails, tail DNA %, tail and olive tail moment)” value in the data set on CCRF-CEM cells [2] is reported as “induced DNA damage in a dose-dependent manner”. Also, the cell cycle arrest entry with CCRF-CEM cells [6] was “clear arrest in the S-phase”.

Source of the values: paper PMC5915154, “Aloe-emodin as drug candidate for cancer therapy” (Oncotarget, 2018).
